Data on three molecules can be found in EP4119135A1, “METHODS FOR REBALANCING THE INTESTINAL FLORA IN PATIENTS SUFFERING FROM PARKINSON'S DISEASE” (Luxia Scientific, priority 2021, dated 2023).

SMILES strings stand for the structures. Values joined by “and” are separate entries in the source; they are usually repeats but may differ in a detail not shown here. Identical values can stand only once. “Also recorded” adds a separate entry of the source.

One experiment relates to Blautia. Kind of experiment: Spearman correlation between estimated daily nutrient intake (food questionnaire) and relative abundance of the bacterial genus (16S sequencing of faecal samples). As to conditions: nutrient intake vs relative abundance of Blautia, whole cohort (215 individus). From the text:
(§1) Les tests statistiques suivants ont été réalisés : • Corrélations non paramétriques de Spearman entre les apports en nutriments calculés et chacune des cinq bactéries d'intérêt. • Corrélations non paramétriques de Spearman entre les fréquences de consommation des aliments du questionnaire alimentaire et chacune des cinq bactéries d'intérêt. • Régressions ordinales entre les fréquences de consommation des aliments du questionnaire alimentaire et chacune des cinq bactéries d'intérêt.
(§2) Après avoir créé leur compte personnel sur le site internet de la société de Luxia Scientific, les clients peuvent remplir de manière volontaire un questionnaire alimentaire. Ce questionnaire possède neuf sous-groupes de questions, chacun constituant une catégorie d'aliments. À l'intérieur de ces sous-groupes, une liste complète d'aliments est fournie et donne aux personnes la possibilité de choisir la fréquence à laquelle elles ont consommé chaque aliment possible au cours du dernier mois dans une portion spécifiée.
(§3) Un tableau des apports nutritionnels par portion d'aliments présents dans le questionnaire a été ensuite créé. Pour créer ce tableau, la Table de composition alimentaire française Ciqual de l'ANSES du 07/07/2020 (https://ciqual.anses.fr/) a été utilisée.
(§4) L'apport en omégas-3 a été calculé en additionnant les valeurs d'apports en acide alpha-linolénique (18:3; ALA), en acide eïcosapentaénoïque (20:5; EPA) et en acide docosahexaénoïque (22:6; DHA). L'apport en omégas-6 a été calculé en additionnant les valeurs d'apports en acide linoléique (18:2; […]) et en acide arachidonique (20:4; ARA) qui sont les deux présents dans la Table Ciqual.
(§5) À cette étape, on possède d'une part les réponses des utilisateurs volontaires pour répondre au questionnaire alimentaire, et, d'autre part, on possède les apports nutritionnels mensuel pour chaque réponse possible de chaque aliment du questionnaire. Il convient ensuite de calculer la somme de tous les apports pour chaque réponse de l'individu au questionnaire, puis de la diviser par 30 pour obtenir l'apport nutritionnel quotidien moyen estimé pour cet individu.
(§6) On obtient ainsi un document décrivant les apports nutritionnels de 70 nutriments chez 288 individus.
(§7) Ces deux fichiers sont ainsi composés au final des données alimentaires de 288 individus. Au début de l'analyse, ont été supprimées les données de 2 individus qui sont des enfants de moins de 4 ans car à cet âge, leur microbiote est encore trop immature pour être représentatif des effets de l'alimentation sur leurs populations bactériennes. On utilise donc les données alimentaires de 286 individus pour les analyses de ce rapport.
(§8) Les résultats ayant servi à l'analyse du microbiote intestinal ont été générés en suivant le processus d'analyse du Dispositif Médical de Diagnostic In Vitro 1test1. En bref, les échantillons fécaux ont été prélevés avec un tube de collecte contenant un conservant afin de permettre le transport à température non controlée depuis l'utilisateur vers le laboratoire d'analyse (DNA/RNA Shield de Zymo Research). L'ADN a ensuite été extrait et le séquençage de la région v3-v4 ARN16s réalisé par le laboratoire IBBL au Luxembourg sur un séquenceur MiSeq d'Illumina selon le protocol en application (peut-être rajouter une référence publication). […]

In another experiment the test system is Clostridium_XVIII. The experiment is described as above. As to conditions: nutrient intake vs relative abundance of Clostridium_XVIII, whole cohort (215 individus).
Description: as §1, §2, §3, §4, §5, §6, §7, §8

For the next experiment, the system named is Faecalibacterium. Described as above. As to conditions: nutrient intake vs relative abundance of Faecalibacterium, whole cohort (215 individus).
Description: as §1, §2, §3, §4, §5, §6, §7, §8

A further experiment relates to microbiote intestinal. The experiment is described as follows: Short-term colonic incubations (in vitro faecal fermentation, simplified SHIME) with faecal inocula of Parkinson and healthy donors. Format: cell-based, humain. As to conditions: for pH (activité de fermentation): 0-48h. From the text: Pour valider l'effet bénéfique des 5 nutriments d'intérêt sur le microbiote intestinal, une étude In Vitro a été réalisée sur des microbiotes reconstitués à partir de selles d'individus sains et de patients souffrant de la maladie de Parkinson. En particulier, l'effet bénéfique de l'apport de ces nutriments a été évalué à travers l'augmentation de la production de butyrate et d'acides gras à chaine courte en général, ainsi que les changements observés au niveau des métabolites.
Trois donneurs sains et deux donneurs atteints de la maladie de Parkinson ont été recrutés. Pour évaluer les effets de chacun des nutriments sur le microbiote intestinal des donneurs susmentionnés, des simulations coliques à court terme ont été effectuées. L'évaluation de chaque nutriment a été basée 1) sur les effets sur la fermentation microbienne globale (pH) et 2) sur l'activité métabolique microbienne (production de AGCC, de lactate et d'un panel d'environ 400 métabolites).
Les approches in vitro pour étudier le tractus gastro-intestinal et les processus microbiens intestinaux offrent une excellente configuration expérimentale pour étudier les processus qui se développent dans le microbiome intestinal humain. Le dépistage des effets de composés sélectionnés sur le microbiote intestinal peut être effectué au moyen d'une fermentation fécale réalisée dans un seul réacteur, ce qui permet d'évaluer la capacité de substrats spécifiques à moduler la composition et l'activité microbiennes intestinales. Ces expériences représentent une simulation simplifiée du Simulateur continu de l'écosystème microbien intestinal humain (SHIME®).
Les matières fécales ont été recueillies auprès de cinq donneurs (deux donneurs atteints de la maladie de Parkinson (PD) et trois donneurs sains (HD)).
Les matières fécales ont été recueillies dans des conteneurs anaérobies et conservées à la température du réfrigérateur jusqu'à un traitement ultérieur. Dans les 48 heures suivant la défécation, des suspensions fécales (15 % (p/v)) ont été préparées dans un tampon phosphate et mélangées dans un rapport 1 : 1 avec un cryoprotecteur optimisé en interne dans une chambre anaérobie. Les suspensions obtenues ont été immédiatement surgelées dans de l'azote liquide puis conservées à -80°C (cryostock). Juste avant l'expérience, les échantillons ont été décongelés et immédiatement ajoutés aux réacteurs, de sorte qu'un seul cycle de congélation-décongélation a été appliqué sur chaque inoculum individuel.
Un test de dépistage à court terme consiste généralement en une incubation colique d'une dose unique d'un composé d'essai dans des conditions représentatives du gros intestin proximal, en utilisant des inoculums bactériens provenant de donneurs sélectionnés comme sources microbiennes. Cinq traitements et une condition de référence (contrôle négatif) ont été testés par donneur. La composition du milieu dans le contrôle et les traitements est exactement la même, mais le contrôle ne contient pas l'ingrédient de test. Le contrôle est inclus pour déterminer les changements de base dans les différents paramètres étudiés (pH, production d'AGCC, lactate et métabolites liés à l'intestin) résultant de la fermentation des nutriments dans le milieu nutritionnel appauvri en glucides qui est introduit avec les ingrédients d'essai dans les réacteurs (voir ci-dessous), pour fournir des nutriments essentiels à la population microbienne. Chaque condition a été testée en une seule répétition chez cinq donneurs.
Un milieu nutritionnel appauvri en glucides (contenant les nutriments basaux du côlon) a été ajouté à chaque réacteur (y compris le contrôle), ainsi que 10 % (v/v) d'un inoculum fécal cryoconservé à 7,5 % (qui a servi de source microbienne) de chaque des cinq donneurs, portant le volume total dans les réacteurs à 70 mL. Des billes porteuses de mucine ont été incluses dans chaque réacteur, pour simuler la couche de mucus du côlon. […]

Where [1] appears, read: healthy individuals, vs control.
Setting [2] is: two Parkinson patients, vs control.

Turning to `CC1=C(/C=C/C(C)=C/C=C/C(C)=C/C=C/C=C(C)/C=C/C=C(C)/C=C/C2=C(C)CCCC2(C)C)C(C)(C)CCC1` [Beta-Carotène, bêta-carotène], the corrélation in the experiment with Blautia is 0,14; in the experiment on Blautia (listed as bêta-carotène), “corrélation positive significative au seuil de 5%”; in the experiment with Clostridium_XVIII it was 0,11; with Faecalibacterium it was 0,12.
For the molecule `CCC=CCC=CCC=CCC=CCC=CCC=CCCC(=O)O` [DHA, acide docosahexaénoïque], the corrélation with Clostridium_XVIII was 0,11 and 0,10.
Consider `CCCC(=O)O` [butyrate de sodium], for which the production de butyrate entry in the experiment with microbiote intestinal (Parkinson patients, vs control, added 10 mM butyrate taken into account) is “a fortement stimulé la production de butyrate; also recorded: a stimulé la production de butyrate dans la population parkinsonienne”. In the experiment with microbiote intestinal (setting [1]), the “production d'acétate” value was “concentrations d'acétate similaires à celles du contrôle”, the production de propionate entry is recorded as “concentrations de propionate similaires à celles du contrôle” and the “pH (activité de fermentation)” value is “baisses de pH les plus légères”. Further, the production de butyrate result with microbiote intestinal (healthy individuals, vs control (blank)) is “n'a pas stimulé la production de butyrate; also recorded: pas dans la population en bonne santé”. Further, in the experiment with microbiote intestinal (setting [2]), the “production d'acétate” value is recorded as “concentrations d'acétate similaires à celles du contrôle”, the production de propionate entry is on record as “légers effets de stimulation” and the “pH (activité de fermentation)” value is “profils de pH similaires à ceux du contrôle”.
